Results from the OligoGym collection.
Where “and” joins values, the source holds several entries; their conditions need not be identical. Equal values may be shown once. After the bases stand the sugars from the 5' end (letter, count) and the backbone: PS all phosphorothioate, else s phosphorothioate and o phosphodiester by linkage. Methylation of C is not given here. e = 2'-O-(2-methoxyethyl) (MOE); k = constrained ethyl (cEt); d = 2'-deoxy (DNA)

Molecular target: SOD1
Details: ASO

Sequence | target mRNA inhibition (HepG2, 3 µM) [%] | target mRNA inhibition (HepG2, 4 µM) | target mRNA inhibition (HepG2, 5 µM) | further results
ACAGCTAGCAGGATAAC (sugars e2 k2 d9 k2 e2, PS) | 89 | 83% | – | target mRNA inhibition (HepG2, 0.1875 µM): 29%; target mRNA inhibition (HepG2, 0.75 µM): 71%; target mRNA inhibition (HepG2, 12 µM): 97%
TCTGACAAGTTTAATAC (sugars e3 k2 d7 k2 e3, PS) | 0 | – | – | –
AACTATACAAATCTTCC (sugars e3 k2 d7 k2 e3, PS) | 28 | – | – | –
TCATTGAAACAGACATT (sugars e3 k2 d7 k2 e3, PS) | 10 | – | – | –
TCCTTTGGCCCACCGTG (sugars e3 k2 d7 k2 e3, PS) | 39 | – | – | –
AATGTTTATTGGGCGAT (sugars e3 k2 d7 k2 e3, PS) | 30 | – | – | –
AGGATTAAAGTGAGGAC (sugars e3 k2 d7 k2 e3, PS) | 23 | – | – | –
TTCTCACTACAGGTACT (sugars e2 k2 d9 k2 e2, PS) | – | – | 37% | –
AATAAGTGCCATACAGG (sugars e2 k2 d8 k2 e3, PS) | – | – | 40% | –
ATTACACCACAAGCCAA (sugars e2 k2 d8 k2 e3, PS) | – | 46% | – | –
TCAGGATACATTTCTACAGC (sugars e5 d10 e5, PS) | 75 | – | 70% | target mRNA inhibition (HepG2, 0.1875 µM): 13%; target mRNA inhibition (HepG2, 0.75 µM): 42%; target mRNA inhibition (HepG2, 12 µM): 92%
GACTACATCCAAGGGAA (sugars e3 k2 d7 k2 e3, PS) | 19 | – | – | –
TTACTTTCCTTCTGCTC (sugars e3 k2 d7 k2 e3, PS) | 22 | – | – | –
ACTGCAACGGAAACCCCAGA (sugars e5 d10 e5, PS) | – | 43% | – | –
GTTTTCTGGATAGAGGATTA (sugars e5 d10 e5, PS) | – | – | 28% and 39% | –
GTCACACAATTACACTT (sugars e2 k2 d9 k2 e2, PS) | – | – | 35% | –
AGTGTTTAATGTTTATC (sugars ekekddddddddeeeee, linkages s1 o2 s9 o2 s2) | – | – | – | target mRNA inhibition (A431, 0.062 µM): 24%; target mRNA inhibition (A431, 0.185 µM): 37%; target mRNA inhibition (A431, 0.556 µM): 57%; target mRNA inhibition (A431, 1.667 µM): 77%; target mRNA inhibition (A431, 5 µM): 81%; target mRNA inhibition (A431, 15 µM): 86%; target mRNA inhibition (SH-SY5Y, 0.062 µM): 3%; target mRNA inhibition (SH-SY5Y, 0.185 µM): 6%; target mRNA inhibition (SH-SY5Y, 0.556 µM): 48%; target mRNA inhibition (SH-SY5Y, 1.667 µM): 69%; target mRNA inhibition (SH-SY5Y, 5 µM): 77%; target mRNA inhibition (SH-SY5Y, 15 µM): 87%
ATTGGGCGATCCCAATT (sugars e2 k2 d9 k2 e2, PS) | – | 23% | – | –
GTCATTGAAACAGACAT (sugars e2 k2 d8 k2 e3, PS) | – | – | 2% | –
CCACCTTTGCCCAAGTC (sugars e3 k2 d7 k2 e3, PS) | 91 | – | – | –

Sequence | target mRNA inhibition (HepG2, 3 µM) [%] | target mRNA inhibition (HepG2, 4 µM) | target mRNA inhibition (HepG2, 5 µM) | further results
TTTTAGTTTGAATTTGGATT (sugars e5 d10 e5, PS) | – | – | 0% | –
ATTCTGACAAGTTTAAT (sugars e3 k2 d7 k2 e3, PS) | 9 | – | – | –
AAATACAGGTCATTGAA (sugars e2 k2 d8 k2 e3, PS) | – | – | 28% | –
CCCTTCAGCACGCACAC (sugars e2 k2 d9 k2 e2, PS) | 82 | 81% | – | target mRNA inhibition (HepG2, 0.1875 µM): 14%; target mRNA inhibition (HepG2, 0.75 µM): 47%; target mRNA inhibition (HepG2, 12 µM): 97%
GGAATGTTTATTGGGCG (sugars e2 k2 d9 k2 e2, PS) | – | 58% | – | –
AGGATACATTTCTACAG (sugars e2 k2 d8 k2 e3, PS) | – | 60% | – | –
TGAAACAGACATTTTAACTG (sugars e5 d10 e5, PS) | – | – | 0% | –
GATAACAGATGAGTTAA (sugars e2 k2 d9 k2 e2, PS) | – | 28% | – | –
GTCTCCAACATGCCTCT (sugars e3 k2 d7 k2 e3, PS) | 8 | – | – | –
GCGATCCCAATTACACC (sugars e3 k2 d7 k2 e3, PS) | 19 | – | – | –
GGTTCCGAGGACTGCAACGG (sugars e5 d10 e5, PS) | – | 35% | – | –
CAGACTACATCCAAGGG (sugars e2 k2 d9 k2 e2, PS) | 74 | 78% | – | target mRNA inhibition (HepG2, 0.1875 µM): 28%; target mRNA inhibition (HepG2, 0.75 µM): 55%; target mRNA inhibition (HepG2, 12 µM): 91%
CATCTGCTTTTTCATGGACC (sugars e5 d10 e5, PS) | 46 | – | – | –
TTCATGGACCACCAGTGTGC (sugars e5 d10 e5, PS) | – | – | 21% | –
TTTTATTCACAGGCTTG (sugars e2 k2 d8 k2 e3, PS) | – | – | 43% | –
TATTCACAGGCTTGAAT (sugars e2 k2 d9 k2 e2, PS) | – | – | 11% | –
GAGACTACGACGCAAACCAG (sugars e5 d10 e5, PS) | – | 23% | – | –
TTAATACCCATCTGTGATTT (sugars e5 d10 e5, PS) | – | – | 11% | –
ATGTTTATCAGGATACA (sugars e2 k2 d8 k2 e3, PS) | 92 | 85% and 86% | – | target mRNA inhibition (HepG2, 0.1875 µM): 40%; target mRNA inhibition (HepG2, 0.75 µM): 75%; target mRNA inhibition (HepG2, 12 µM): 95% and 98%
